One data set addresses T1, GDSL-like protein (Collinsella aerofaciens, UniProt A4E8S4).
T1 sequence (A4E8S4 whole entry): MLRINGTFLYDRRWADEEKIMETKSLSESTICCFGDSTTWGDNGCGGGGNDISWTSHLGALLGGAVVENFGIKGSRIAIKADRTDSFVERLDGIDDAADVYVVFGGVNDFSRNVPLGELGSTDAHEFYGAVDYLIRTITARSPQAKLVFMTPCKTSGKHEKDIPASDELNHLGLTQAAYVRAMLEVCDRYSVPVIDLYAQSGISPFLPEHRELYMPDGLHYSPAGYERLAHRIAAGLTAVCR
Description: The drug is tested on Collinsella aerofaciens strain: ATCC25986 for biotransformation. The drug concentrations were measured before and after a 12-h incubation by liquid-chromatography-coupled mass spectrometry (LC–MS). Also on record: dose 2 uM. The class given is ADME. To be noted: 2 µM.

Another data set has as its target T2, Lipase (Bacteroides thetaiotaomicron, UniProt Q8A3J3).
T2 sequence (Q8A3J3 whole entry): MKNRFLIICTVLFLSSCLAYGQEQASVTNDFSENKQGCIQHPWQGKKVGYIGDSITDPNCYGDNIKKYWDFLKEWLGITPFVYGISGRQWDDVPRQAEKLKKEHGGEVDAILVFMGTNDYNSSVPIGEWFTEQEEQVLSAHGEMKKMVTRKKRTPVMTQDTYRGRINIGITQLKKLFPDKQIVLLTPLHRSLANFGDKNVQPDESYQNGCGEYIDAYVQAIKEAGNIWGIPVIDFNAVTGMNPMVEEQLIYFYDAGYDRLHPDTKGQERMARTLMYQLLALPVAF
As to the kind of experiment: The drug is tested on Bacteroides thetaiotaomicron strain: VPI-5482 for biotransformation. The drug concentrations were measured before and after a 12-h incubation by liquid-chromatography-coupled mass spectrometry (LC–MS). Set-up: dose 2 uM. The settings on record: 2 µM. The format is ADME.

The target of data set [1] is T3, Nitroreductase domain-containing protein (Phocaeicola dorei, UniProt B6W3P3).
T3 sequence (B6W3P3 whole entry): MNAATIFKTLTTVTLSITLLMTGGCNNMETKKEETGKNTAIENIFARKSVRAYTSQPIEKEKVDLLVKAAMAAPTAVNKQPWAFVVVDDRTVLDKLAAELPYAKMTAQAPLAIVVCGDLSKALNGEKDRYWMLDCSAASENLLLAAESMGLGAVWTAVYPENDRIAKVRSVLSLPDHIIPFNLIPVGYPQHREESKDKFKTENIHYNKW
Description: (§1) The drug is tested on Bacteroides dorei strain: DSM17855 for biotransformation. The drug concentrations were measured before and after a 12-h incubation by liquid-chromatography-coupled mass spectrometry (LC–MS). The class given is ADME. Also on record: dose 2 uM. To be noted: 2 µM.

Data set [2] addresses T4, SGNH hydrolase-type esterase domain-containing protein (Phocaeicola dorei, UniProt B6W1J1).
T4 sequence (B6W1J1 whole entry): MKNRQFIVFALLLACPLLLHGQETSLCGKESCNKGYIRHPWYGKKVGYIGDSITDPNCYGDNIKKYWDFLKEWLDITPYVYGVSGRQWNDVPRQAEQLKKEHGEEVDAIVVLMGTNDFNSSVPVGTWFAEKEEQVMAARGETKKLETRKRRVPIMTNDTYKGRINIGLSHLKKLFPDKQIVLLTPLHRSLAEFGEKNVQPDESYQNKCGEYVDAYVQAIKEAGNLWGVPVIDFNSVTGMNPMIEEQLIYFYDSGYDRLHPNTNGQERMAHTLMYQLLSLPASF
The data set is described as §1. The format is ADME. Set-up: dose 2 uM. The settings on record: 2 µM.

Data set [3] addresses T5, SGNH hydrolase-type esterase domain-containing protein (Phocaeicola dorei, UniProt B6VTE7).
T5 sequence (B6VTE7 whole entry): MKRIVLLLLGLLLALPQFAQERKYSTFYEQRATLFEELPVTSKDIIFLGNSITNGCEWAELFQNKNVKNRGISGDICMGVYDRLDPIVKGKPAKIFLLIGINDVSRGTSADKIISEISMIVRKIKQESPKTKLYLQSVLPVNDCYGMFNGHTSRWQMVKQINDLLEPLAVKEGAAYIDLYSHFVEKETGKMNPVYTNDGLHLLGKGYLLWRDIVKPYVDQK
The description is as §1. Set-up: dose 2 uM. To be noted: 2 µM. The format is ADME.

Data set [4] deals with T6, SGNH hydrolase-type esterase domain-containing protein (Phocaeicola dorei, UniProt B6W293).
T6 sequence (B6W293 whole entry): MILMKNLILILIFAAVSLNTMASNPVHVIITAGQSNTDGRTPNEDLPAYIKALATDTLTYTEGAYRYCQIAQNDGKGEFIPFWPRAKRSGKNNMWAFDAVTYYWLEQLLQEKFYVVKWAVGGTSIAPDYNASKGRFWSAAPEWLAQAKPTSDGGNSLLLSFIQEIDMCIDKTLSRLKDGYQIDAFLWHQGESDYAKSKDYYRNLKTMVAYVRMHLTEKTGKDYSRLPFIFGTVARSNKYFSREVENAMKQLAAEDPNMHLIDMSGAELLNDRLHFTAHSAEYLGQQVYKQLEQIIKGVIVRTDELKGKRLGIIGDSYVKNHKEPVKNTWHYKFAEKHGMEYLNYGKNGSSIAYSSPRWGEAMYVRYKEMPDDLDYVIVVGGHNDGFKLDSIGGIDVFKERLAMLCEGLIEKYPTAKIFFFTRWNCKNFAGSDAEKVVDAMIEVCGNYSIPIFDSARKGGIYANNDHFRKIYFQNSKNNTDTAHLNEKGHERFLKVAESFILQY
Described as §1. The class given is ADME. Set-up: dose 2 uM. To be noted: 2 µM.

Data set [5] addresses T7, Nitroreductase domain-containing protein (Phocaeicola dorei, UniProt B6VU18).
T7 sequence (B6VU18 whole entry): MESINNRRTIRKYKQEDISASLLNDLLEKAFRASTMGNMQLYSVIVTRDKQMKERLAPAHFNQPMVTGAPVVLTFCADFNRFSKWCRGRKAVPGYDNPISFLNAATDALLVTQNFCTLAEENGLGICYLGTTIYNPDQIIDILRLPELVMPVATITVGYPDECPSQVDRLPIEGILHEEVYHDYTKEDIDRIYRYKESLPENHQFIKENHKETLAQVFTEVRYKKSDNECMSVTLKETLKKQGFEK
The description is as §1. The class given is ADME. Set-up: dose 2 uM. To be noted: 2 µM.

The target in the next data set is T8, Esterase (Phocaeicola dorei, UniProt B6W2J6).
T8 sequence (B6W2J6 whole entry): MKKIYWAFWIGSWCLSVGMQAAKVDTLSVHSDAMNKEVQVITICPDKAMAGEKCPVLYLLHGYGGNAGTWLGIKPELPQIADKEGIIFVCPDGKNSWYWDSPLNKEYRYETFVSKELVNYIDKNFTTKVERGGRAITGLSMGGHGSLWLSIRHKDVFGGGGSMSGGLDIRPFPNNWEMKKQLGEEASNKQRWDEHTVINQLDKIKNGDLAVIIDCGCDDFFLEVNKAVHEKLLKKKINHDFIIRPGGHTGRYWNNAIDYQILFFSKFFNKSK
The data set is described as §1. The format is ADME. To be noted: 2 µM. Set-up: dose 2 uM.

Data set [6] can be described thus: The drug is tested on Clostridium hathewayi strain: DSM13479 for biotransformation. The drug concentrations were measured before and after a 12-h incubation by liquid-chromatography-coupled mass spectrometry (LC–MS). To be noted: hungatella hathewayi, 2 µM.

Molecules are shown by their SMILES.

In the case of `C[C@@H]1CC[C@H]2[C@@H](C)C(=O)O[C@@H]3O[C@@]4(C)CC[C@@H]1[C@]32OO4` [ARTEMISININ], the “Bacterial Biotransformation” value (on GDSL-like protein; on Lipase; in data set [1]; in data set [2]; in [3]; in data set [4]) was “Compound NOT metabolized” throughout. Moreover, the figures for the “Bacterial Biotransformation” value (in data set [5]; at Esterase; in [6]) were “Compound NOT metabolized”, “Compound NOT metabolized” and “Compound metabolized”, respectively.

Take `CC(=O)Nc1ccc(OC(C)=O)cc1` [DIACETAMATE]: the “Bacterial Biotransformation” value on GDSL-like protein is “Compound metabolized”; at Lipase, “Compound metabolized”; in data set [1], “Compound NOT metabolized”; in data set [2] it was “Compound metabolized”; in data set [3] it was “Compound metabolized”; in data set [4], “Compound metabolized”. Moreover, the “Bacterial Biotransformation” value in data set [5] was “Compound NOT metabolized”; on Esterase, “Compound metabolized”.

For `CCN(CC)C(=O)/C(C#N)=C/c1cc(O)c(O)c([N+](=O)[O-])c1` [ENTACAPONE], the “Bacterial Biotransformation” value (on GDSL-like protein; on Lipase; in data set [1]; in [2]; in data set [3]; in data set [4]) was “Compound NOT metabolized” in each case. The “Bacterial Biotransformation” value (in data set [5]; on Esterase) was “Compound NOT metabolized” each time.

With `COc1ccnc(C[S+]([O-])c2nc3ccc(OC(F)F)cc3[nH]2)c1OC` (stereo not given) [PANTOPRAZOLE], the “Bacterial Biotransformation” value is “Compound NOT metabolized” at GDSL-like protein; “Compound NOT metabolized” on Lipase; “Compound NOT metabolized” in data set [1]; “Compound metabolized” in [2]; “Compound metabolized” in data set [3]; “Compound metabolized” in data set [4]. The figures for the “Bacterial Biotransformation” value (in [5]; at Esterase) were “Compound NOT metabolized” and “Compound metabolized”, respectively.

As for `Nc1ccc(/N=N/c2ccccc2)c(N)n1` [PHENAZOPYRIDINE], the “Bacterial Biotransformation” value (at GDSL-like protein; on Lipase; in [1]; in data set [2]; in [3]; in data set [4]) was “Compound NOT metabolized” in each case. For the same compound, the “Bacterial Biotransformation” value (in [5]; on Esterase) was “Compound NOT metabolized” in each case.

Take `CC(=O)SCC(Cc1ccccc1)C(=O)NCC(=O)OCc1ccccc1` (stereo not given) [RACECADOTRIL]: the “Bacterial Biotransformation” value is given as “Compound metabolized” at GDSL-like protein; “Compound metabolized” on Lipase; “Compound NOT metabolized” in [1]; “Compound NOT metabolized” in data set [2]; “Compound NOT metabolized” in data set [3]; “Compound NOT metabolized” in data set [4]. Besides, the “Bacterial Biotransformation” value (in [5]; at Esterase) was “Compound NOT metabolized” throughout.

On to `CC(=O)OCC(=O)NCCCOc1cccc(CN2CCCCC2)c1` [ROXATIDINE ACETATE], for which the “Bacterial Biotransformation” value (at GDSL-like protein; at Lipase; in data set [1]; in data set [2]; in [3]; in [4]) was “Compound NOT metabolized” each time. Further, the “Bacterial Biotransformation” value (in [5]; at Esterase) was “Compound NOT metabolized” in each case.

Consider `CCS(=O)(=O)CCn1c([N+](=O)[O-])cnc1C` [TINIDAZOLE], for which the “Bacterial Biotransformation” value is reported as “Compound NOT metabolized” on GDSL-like protein; “Compound NOT metabolized” on Lipase; “Compound metabolized” in data set [1]; “Compound NOT metabolized” in data set [2]; “Compound NOT metabolized” in data set [3]; “Compound NOT metabolized” in [4]. Moreover, the “Bacterial Biotransformation” value in [5] is given as “Compound metabolized”; on Esterase, “Compound NOT metabolized”.

The values are drawn from ChEMBL document CHEMBL5303573, “Mapping human microbiome drug metabolism by gut bacteria and their genes” (Nature, 2019).
